# Source: US11401278B2, “Macrocyclic indole derivatives” (The Broad Institute, Inc., priority 2017, dated 2022)
# Where a name gives a salt, the structure may show the parent alone. Read-outs that look alike come from different tables or passages of the source.
# Columns and labels:
# [1] = amine bond, 60.0 °C
# [2] = system: SUDHL5; experiment: Induction of caspase-3/7 activity (Assay 4), SUDHL5; type: cell-based; conditions: caspase-3/7 induction, 3 hours, median
# Description: (§1) Cellular Assays Assay 4 Induction of Caspase-3/7 Activity Upon Treatment of Cells with Selected Compounds
# (§2) The BH3-domain of MCL-1 sequesters pro-apoptotic proteins, thereby inhibiting apoptosis. In contrast, MCL-1 inhibitors are expected to antagonize this effect leading to an increase in apoptosis, which can be determined by measuring the activity of caspase-3/7.
# (§3) The activity of caspase-3/7 was determined in DLBCL (Diffuse large B-cell lymphoma) cell lines (SUDHL5 and SUDHL10) upon treatment with different compounds, using the Caspase-Glo® 3/7 reagent from Promega (G8092).
# (§4) Rim wells were excluded. The cells were incubated for 3 hours in a humidified incubator at 37° C.
# (§5) For the evaluation of the results, the background measured with “medium-only” was subtracted from all other values. […] The Bella DRC Master Sheet was used to calculate EC50s, with fixed C0=1 and CI=plateau/max induction for the reference compound.
# [3] = system: SUDHL10; experiment: Induction of caspase-3/7 activity (Assay 4), SUDHL10; type: cell-based; conditions: caspase-3/7 induction, 3 hours, median
# Description: as §1, §2, §3, §4, §5
# [4] = system: HMC-1-8; experiment: Antiproliferation assay (Assay 7), HMC-1-8; type: cell-based; conditions: CellTiter-Glo, 72 hours, several values per example, read-out: Antiproli HMC-1-8 [M] IC50
# Description: (§6) Assessment of the Anti-Proliferative Effect of Compounds in Different Cell Lines
# (§7) The impact of compounds on the proliferation of different cell lines was assessed using the CellTiter-Glo® Luminescent Cell Viability reagent from Promega (G7573).
# (§8) In parallel, cells were plated in a reference (day 0) plate for time zero determination.
# (§9) Rim wells were excluded. The cells were incubated for 72 hours in a humidified incubator at 37° C. The day 0 plate was measured by adding 30 μL/well of CTG solution (CellTiter-Glo® Luminescent Cell Viability reagent, Promega G7573) to time zero wells in the reference plate followed by a 10 minutes incubation and luminescence reading at 0.1 ms. using the PHERAstar FS microplate reader (BMG Labtech).
# (§10) After 72 hours incubation, the treated plates were measured in the same way as the day 0 plate mentioned above.
# [5] = system: SUDHL5; experiment: Antiproliferation assay (Assay 7), SUDHL5; type: cell-based; conditions: CellTiter-Glo, 72 hours, median, read-out: Antiproli SUDHL5 [M] (median) IC50
# Description: as §6, §7, §8, §9, §10
# [6] = system: SUDHL5; experiment: Induction of cytotoxicity (Assay 6), SUDHL5; conditions: read-out: Cytotox SUDHL5 [M] (median) IC50, CellTiter-Glo, 5 hours, SUDHL5
# [7] = system: AMO-1; experiment: Antiproliferation assay (Assay 7), AMO-1; type: cell-based; conditions: CellTiter-Glo, 72 hours, several values per example, read-out: Antiproli AMO-1 [M] IC50
# Description: as §6, §7, §8, §9, §10
# [8] = system: SUDHL10; experiment: Induction of cytotoxicity (Assay 6), SUDHL10; conditions: read-out: Cytotox SUDHL10 [M] (median) IC50, CellTiter-Glo, 5 hours, SUDHL10
# [9] = molecular target: MCL-1 (Homo sapiens (Human), UniProt Q07820, K194A/K197A/R201A); experiment: Protein-protein interaction assay MCL-1/Noxa BH3 peptide (MCL-1 assay, TR-FRET); type: binding; conditions: MBP-MCL-1 / Noxa BH3 peptide, median
# MCL-1, sequence (Q07820 whole entry K194A/K197A/R201A, looked up): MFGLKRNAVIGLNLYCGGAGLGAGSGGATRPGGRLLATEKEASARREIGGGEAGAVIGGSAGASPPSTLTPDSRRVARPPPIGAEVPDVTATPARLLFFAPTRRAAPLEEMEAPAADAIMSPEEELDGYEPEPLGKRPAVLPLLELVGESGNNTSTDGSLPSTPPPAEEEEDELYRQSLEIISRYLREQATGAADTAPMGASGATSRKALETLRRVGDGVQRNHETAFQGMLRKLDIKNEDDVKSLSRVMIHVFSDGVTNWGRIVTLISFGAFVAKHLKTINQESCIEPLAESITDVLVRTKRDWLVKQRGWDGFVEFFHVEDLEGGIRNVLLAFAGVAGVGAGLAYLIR
# Description: Protein-Protein Interaction Assay: MCL-1/Noxa BH3 Peptide (MCL-1 Assay)
# The dose-dependent inhibition by the compounds described in this invention of the interaction between MCL-1 and the BH3 domain of Noxa (both human) was determined using a steady state binding competition assay with time-resolved fluorescence energy transfer (TR-FRET) readout. For that purpose MCL-1 (amino acids 173-329, N-terminal fused to Maltose Binding Protein (MBP) SEQ ID 1) and a synthetic Noxa BH3-derived peptide of sequence Biotin-PEG2-PEG2-PAELEVE-Nva-ATQLRRFGDKLNFRQKLL-amide (SEQ ID 2) served as protein receptor and tracer ligand respectively. The MBP-MCL-1 was purchased from Beryllium (Bedford, Mass., USA). The expression and purification of this protein construct has been described elsewhere (DOI:10.1371/journal.pone.0125010). The Noxa BH3-derived peptide can be obtained from e.g. Biosyntan (Berlin, Germany).
# In the assay 11 different concentrations of each compound (0.1 nM, 0.33 nM, 1.1 nM, 3.8 nM, 13 nM, 44 nM, 0.15 μM, 0.51 μM, 1.7 μM, 5.9 μM and 20 μM) were typically measured as duplicates in the same microtiter plate. For that, 100-fold concentrated DMSO solutions were prepared by serial dilutions (1:3.4) of a 2 mM stock solution in a clear, 384-well microtiter plate (Greiner Bio-One, Frickenhausen, Germany). From there, 50 nl were transferred in a dark test plate (Greiner Bio-One, Frickenhausen, Germany). The assay was initiated by addition of 2 μl of a 2.5-fold concentrated MBP-MCL-1 solution (usually for a 1 nM end concentration in 5 μl reaction volume) in aqueous assay buffer [50 mM Tris/HCl pH 7, 100 mM sodium chloride (NaCl), 50 mM potassium fluoride (KF), 0.005% Tween-20, 2 mM DTT, 0.1% bovine gamma globulin (BGG)] to the compounds in the assay plate. This was followed by a 10-minute incubation step at 22° C. for pre-equilibration of the putative complex between MBP-MCL-1 and the compounds. After that, 3 μl of a 1.67-fold concentrated solution (in assay buffer) consisting of Noxa BH3-derived peptide (1 nM end concentration) and TR-FRET detection reagents [1.67 nM anti-MBP-Eu cryptate and 1.67 nM streptavidin-XL665 (both from Cisbio Bioassays, Codolet, France)], were added.
# The mixture was incubated in the dark for one hour at 22° C. and then overnight at 4° C. The formation of MCL-1/Noxa complexes was determined by measuring the resonance energy transfer of the anti-MBP-Eu-cryptate antibody to the streptavidin-XL665 present in the reaction. For that purpose, the fluorescence emission at 620 nm and 665 nm after excitation at 330-350 nm was measured in a TR-FRET measuring instrument, for instance a Rubystar or a Pherastar (both from BMG Lab Technologies, Offenburg, Germany) or a Viewlux (Perkin-Elmer). The ratio of the emission at 665 nm and at 622 nm was used as indicator of the amount of MCL-1/NOXA complexes present.
# The resulting data (ratio) were normalized, taking 0% inhibition as the mean value of control measurements (usually 32 data points) where all reagents were included. In this case 50 nl DMSO were used instead of compounds. A 100% inhibition corresponded to the mean value of control measurements (usually 32 data points) where all reagents except MCL-1 were included. IC50 values were determined by regression analysis based on a 4 parameter equation (minimum, maximum, IC50, Hill; Y=Max+(Min−Max)/(1+(X/IC50)^HiII) using the Screener Software (Genedata).
structure (smiles),measurement,setting,value
CCOC(=O)c1c(CCCOc2cccc3cc(F)ccc23)c2ccc(Cl)c3c2n1CCCS(=O)(=O)N(C)C(CCC1CCOCC1)c1nn(C)c(CC)c1-3 (racemic),"ring closure, yield of all isomers","[1]; from CCOC(=O)c1[nH]c2c(-c3c(C(CCC4CCOCC4)N(C)S(=O)(=O)CCCCl)nn(C)c3CC)c(Cl)ccc2c1CCCOc1cccc2cc(F)ccc12, cesium carbonate, acetonitrile, 34.4 mM, 48.0 h",77%
CCOC(=O)c1c(CCCOc2cccc3cc(F)ccc23)c2ccc(Cl)c3c2n1CCCS(=O)(=O)N(C)C(CCN1CCOCC1)c1nn(C)c(CC)c1-3 (racemic),"ring closure, yield of all isomers","[1]; from CCOC(=O)c1[nH]c2c(-c3c(C(CCN4CCOCC4)N(C)S(=O)(=O)CCCCl)nn(C)c3CC)c(Cl)ccc2c1CCCOc1cccc2cc(F)ccc12, cesium carbonate, acetonitrile, 49.5 mM, 48.0 h",44.9%
CCOC(=O)c1c(CCCOc2cccc3ccccc23)c2cccc3c2n1CCCS(=O)(=O)N(C)C(C)c1nn(C)c(CC)c1-3 (racemic),"ring closure, yield of all isomers","[1]; from CCOC(=O)c1[nH]c2c(-c3c(C(C)N(C)S(=O)(=O)CCCCl)nn(C)c3CC)cccc2c1CCCOc1cccc2ccccc12, Cs2CO3, MeCN, 50.0 mM, 18.0 h",81.9%
CCOC(=O)c1c(CCCOc2cccc3cc(F)ccc23)c2ccc(Cl)c3c2n1CCCS(=O)(=O)N(Cc1ccc(OC)cc1OC)Cc1nn(C)c(C)c1-3,"ring closure, yield of all isomers","[1]; from CCOC(=O)c1[nH]c2c(-c3c(CN(Cc4ccc(OC)cc4OC)S(=O)(=O)CCCCl)nn(C)c3C)c(Cl)ccc2c1CCCOc1cccc2cc(F)ccc12, cesium carbonate, acetonitrile, 51.5 mM, 16.0 h",48%
CCOC(=O)c1c(CCCOc2cccc3cc(F)ccc23)c2ccc(Cl)c3c2n1CCCS(=O)(=O)N(C)CCC(N1CCOCC1)c1nn(C)c(C)c1-3 (stereo not drawn),"ring closure, yield of all isomers","[1]; from CCOC(=O)c1[nH]c2c(-c3c(C(CCN(C)S(=O)(=O)CCCCl)N4CCOCC4)nn(C)c3C)c(Cl)ccc2c1CCCOc1cccc2cc(F)ccc12, Cs2CO3, acetonitrile, 40.7 mM, 48.0 h",63.7%
CCOC(=O)c1c(CCCOc2cccc3cc(F)ccc23)c2ccc(Cl)c3c2n1CCCS(=O)(=O)N(CC)Cc1nn(C)c(CC)c1-3,"ring closure, yield of all isomers","[1]; from CCOC(=O)c1[nH]c2c(-c3c(CN(CC)S(=O)(=O)CCCCl)nn(C)c3CC)c(Cl)ccc2c1CCCOc1cccc2cc(F)ccc12, cesium carbonate, acetonitrile, 50.9 mM, 48.0 h",73%
CCOC(=O)c1c(CCCO[Si](C)(C)C(C)(C)C)c2ccc(Cl)c3c2n1CCCS(=O)(=O)N(C)Cc1nn(C)c(CC)c1-3,"ring closure, yield of all isomers","[1]; from CCOC(=O)c1[nH]c2c(-c3c(CN(C)S(=O)(=O)CCCCl)nn(C)c3CC)c(Cl)ccc2c1CCCO[Si](C)(C)C(C)(C)C, Cs2CO3, MeCN, 50.0 mM, 18.0 h",74.6%
CCOC(=O)c1c(CCCO[Si](C)(C)C(C)(C)C)c2ccc(Cl)c3c2n1CCCS(=O)(=O)N(C1CC1)Cc1nn(C)c(C)c1-3,"ring closure, yield of all isomers","[1]; from CCOC(=O)c1[nH]c2c(-c3c(CN(C4CC4)S(=O)(=O)CCCCl)nn(C)c3C)c(Cl)ccc2c1CCCO[Si](C)(C)C(C)(C)C, Cs2CO3, acetonitrile, 50.4 mM, 48.0 h",60%
CCOC(=O)c1c(CCCOc2cccc3ccccc23)c2cccc3c2n1CCCS(=O)(=O)N(CCCN1CCCC1=O)Cc1nn(C)c(CC)c1-3,"ring closure, yield of all isomers","[1]; from CCOC(=O)c1[nH]c2c(-c3c(CN(CCCN4CCCC4=O)S(=O)(=O)CCCCl)nn(C)c3CC)cccc2c1CCCOc1cccc2ccccc12, NaH, DMF, 25.1 mM, 22.0 h",80.5%
CCOC(=O)c1c(CCCO[Si](C)(C)C(C)(C)C)c2ccc(F)c3c2n1CCCS(=O)(=O)N(C)Cc1nn(C)c(C)c1-3,"ring closure, yield of all isomers","[1]; from CCOC(=O)c1[nH]c2c(-c3c(CN(C)S(=O)(=O)CCCCl)nn(C)c3C)c(F)ccc2c1CCCO[Si](C)(C)C(C)(C)C, Cs2CO3, NaI, acetonitrile, 87.3 mM, 240.0 h",47.7%
CCOC(=O)c1c(CCCOc2cccc3cc(F)ccc23)c2ccc(Cl)c3c2n1CCCS(=O)(=O)N(C1CC1)Cc1nn(C)c(CC)c1-3,"ring closure, yield of all isomers","[1]; from CCOC(=O)c1[nH]c2c(-c3c(CN(C4CC4)S(=O)(=O)CCCCl)nn(C)c3CC)c(Cl)ccc2c1CCCOc1cccc2cc(F)ccc12, cesium carbonate, acetonitrile, 47.2 mM, 16.0 h",91%
CCOC(=O)c1c(CCCOc2cccc3cc(F)ccc23)c2ccc(Cl)c3c2n1CCCS(=O)(=O)N(C)C(CCN1CCOCC1)c1nn(C)c(C)c1-3 (stereo not drawn),"ring closure, yield of all isomers","[1]; from CCOC(=O)c1[nH]c2c(-c3c(C(CCN4CCOCC4)N(C)S(=O)(=O)CCCCl)nn(C)c3C)c(Cl)ccc2c1CCCOc1cccc2cc(F)ccc12, cesium carbonate, acetonitrile, 37.4 mM, 48.0 h",82%
CCOC(=O)c1c(CCCO[Si](C)(C)C(C)(C)C)c2ccc(F)c3c2n1CCCS(=O)(=O)N(C)Cc1nn(C)c(CC)c1-3,"ring closure, yield of all isomers","[1]; from CCOC(=O)c1[nH]c2c(-c3c(CN(C)S(=O)(=O)CCCCl)nn(C)c3CC)c(F)ccc2c1CCCO[Si](C)(C)C(C)(C)C, Cs2CO3, acetonitrile, 50.0 mM, 72.0 h",55.2%
"CCc1c2c(nn1C)CN(C1CC1)S(=O)(=O)CCCn1c(C(=O)O)c(CCCOc3cccc4cc(F)ccc34)c3ccc(Cl)c-2c31 (single isomer, unassigned; enantiomer 2) [Example 55, (+)-4-chloro-14-cyclopropyl-3-ethyl-7-{3-[(6-fluoronaphthalen-1-yl)oxy]propyl}-2-methyl-13,13-dioxo-10,11,12,13,14,15-hexahydro-2H-13lambda^6-pyrazolo[3′,4′:4,5][1,2,8]thiadiazacycloundecino[6,7,8-hi]indole-8-carboxylic acid N-ethylethanamine Salt (Enantiomer 2)]",EC50,[2],8.9 µM
same,EC50,[3],13 µM
same,IC50,[4],2.1e-05 M
same,IC50,[5],1.1e-05 M
same,IC50,[6],8.2e-06 M
same,IC50,[7],> 3.3e-05 M
same,IC50,[8],1.3e-05 M
same,IC50,[9],0.016 µM
